Assay results published in patent US9597407B2, “Targeted antimicrobial moieties” (C3 Jian, Inc., priority 2009, dated 2017).
“Also recorded” adds a separate entry of the source.

System: bacteria
Assay: Binding of targeting peptides to microorganisms (Table 3)
Details: peptide binding in aqueous buffers varied by peptide solubility; preferably 1x PBS

## 1T-7 (SQRIIEPVKSPQPYPGFSVS; Peptide with targeting and/or antimicrobial activity) [Peptide 1T-7]
  Target(s) (microorganism bound by the targeting peptide): M. xanthus

## 1T-8 (FSVAACGEQRAVTFVLLIEDLI; Peptide with targeting and/or antimicrobial activity) [Peptide 1T-8]
  Target(s) (microorganism bound by the targeting peptide): M. xanthus

## 1T-9 (WAWAESPRCVSTRSNIHALAFRVEVAALT; Peptide with targeting and/or antimicrobial activity) [Peptide 1T-9]
  Target(s) (microorganism bound by the targeting peptide): M. xanthus

## 1T-10 (SPAGLPGDGDEA; Peptide with targeting and/or antimicrobial activity) [Peptide 1T-10]
  Target(s) (microorganism bound by the targeting peptide): M. xanthus

## 1T-11 (RISE; Peptide with targeting and/or antimicrobial activity) [Peptide 1T-11]
  Target(s) (microorganism bound by the targeting peptide): S. mutans; also recorded: S. epidermidis; also recorded: P. aeruginosa

## 1T-12 (FGNIFKGLKDVIETIVKWTAAK; Peptide with targeting and/or antimicrobial activity) [Peptide 1T-12]
  Target(s) (microorganism bound by the targeting peptide): C. xerosis; also recorded: C. striatum; also recorded: S. epidermidis; also recorded: S. mutans

## 1T-13 (FRSPCINNNSLQPPGVYPAR; Peptide with targeting and/or antimicrobial activity) [Peptide 1T-13]
  Target(s) (microorganism bound by the targeting peptide): S. aureus; also recorded: S. epidermidis; also recorded: P. aeruginosa

## 1T-14 (ALAGLAGLISGK; Peptide with targeting and/or antimicrobial activity) [Peptide 1T-14]
  Target(s) (microorganism bound by the targeting peptide): S. mutans; also recorded: S. aureus; also recorded: S. epidermidis; also recorded: C. xerosis

## 1T-15 (DVILRVEAQ; Peptide with targeting and/or antimicrobial activity) [Peptide 1T-15]
  Target(s) (microorganism bound by the targeting peptide): S. mutans

## 1T-16 (IDMR; Peptide with targeting and/or antimicrobial activity) [Peptide 1T-16]
  Target(s) (microorganism bound by the targeting peptide): P. aeruginosa

## 1T-17 (NNAIVYIS; Peptide with targeting and/or antimicrobial activity) [Peptide 1T-17]
  Target(s) (microorganism bound by the targeting peptide): S. mutans

## 1T-18 (YSKTLHFAD; Peptide with targeting and/or antimicrobial activity) [Peptide 1T-18]
  Target(s) (microorganism bound by the targeting peptide): S. aureus; also recorded: S. epidermidis; also recorded: C. striatum; also recorded: P. aeruginosa

## 1T-19 (PGAFRNPQMPRG; Peptide with targeting and/or antimicrobial activity) [Peptide 1T-19]
  Target(s) (microorganism bound by the targeting peptide): S. aureus; also recorded: S. epidermidis; also recorded: P. aeruginosa

## 1T-20 (PALVDLSNKEAVWAVLDDHS; Peptide with targeting and/or antimicrobial activity) [Peptide 1T-20]
  Target(s) (microorganism bound by the targeting peptide): S. mutans; also recorded: P. aeruginosa

## 1T-21 (YVEEAVRAALKKEARISTEDTPVNLPSFDC; Peptide with targeting and/or antimicrobial activity) [Peptide 1T-21]
  Target(s) (microorganism bound by the targeting peptide): S. mutans; also recorded: P. aeruginosa

## 1T-22 (VPLDDGTRRPEVARNRDKDRED; Peptide with targeting and/or antimicrobial activity) [Peptide 1T-22]
  Target(s) (microorganism bound by the targeting peptide): S. epidermidis; also recorded: P. aeruginosa

## 1T-23 (PALVDLSNKEAVWAVLDDHS; Peptide with targeting and/or antimicrobial activity) [Peptide 1T-23]
  Target(s) (microorganism bound by the targeting peptide): S. mutans; also recorded: P. aeruginosa

## 1T-24 (EEAEEKLAEVSQAVKRLVR; Peptide with targeting and/or antimicrobial activity) [Peptide 1T-24]
  Target(s) (microorganism bound by the targeting peptide): P. aeruginosa

## 1T-25 (VGLDVSVLVLFFGLQLLSVLLGAMIR; Peptide with targeting and/or antimicrobial activity) [Peptide 1T-25]
  Target(s) (microorganism bound by the targeting peptide): S. aureus; also recorded: S. epidermidis; also recorded: C. xerosis; also recorded: C. striatum; also recorded: P. aeruginosa

## 1T-26 (LTILPTTFFAIIVPILAVAFIAYSGFKIKGIVEHKDQW; Peptide with targeting and/or antimicrobial activity) [Peptide 1T-26]
  Target(s) (microorganism bound by the targeting peptide): S. mutans; also recorded: S. aureus; also recorded: S. epidermidis; also recorded: C. jeikeium; also recorded: C. xerosis; also recorded: C. striatum; also recorded: P. aeruginosa

## 1T-27 (ALFVSLEQFLVVVAKSVFALCHSGTLS; Peptide with targeting and/or antimicrobial activity) [Peptide 1T-27]
  Target(s) (microorganism bound by the targeting peptide): S. mutans; also recorded: S. aureus; also recorded: S. epidermidis; also recorded: C. jeikeium; also recorded: C. xerosis; also recorded: C. striatum; also recorded: P. aeruginosa

## 1T-28 (VSRDEAMEFIDREWTTLQPAGKSHA; Peptide with targeting and/or antimicrobial activity) [Peptide 1T-28]
  Target(s) (microorganism bound by the targeting peptide): P. aeruginosa

## 1T-29 (GSVIKKRRKRMSKKKHRKMLRRTRVQRRKLGK; Peptide with targeting and/or antimicrobial activity) [Peptide 1T-29]
  Target(s) (microorganism bound by the targeting peptide): S. epidermidis; also recorded: C. jeikeium; also recorded: C. xerosis; also recorded: C. striatum; also recorded: P. aeruginosa; also recorded: S. mutans; also recorded: S. aureus

## 1T-30 (GKAKPYQVRQVLRAVDKLETRRKKGGR; Peptide with targeting and/or antimicrobial activity) [Peptide 1T-30]
  Target(s) (microorganism bound by the targeting peptide): S. aureus; also recorded: S. epidermidis; also recorded: C. xerosis; also recorded: C. striatum; also recorded: P. aeruginosa

## 1T-31 (NATGTDIGEVTLTLGRFS; Peptide with targeting and/or antimicrobial activity) [Peptide 1T-31]
  Target(s) (microorganism bound by the targeting peptide): S. mutans; also recorded: P. aeruginosa

## 1T-32 (VSFLAGWLCLGLAAWRLGNA; Peptide with targeting and/or antimicrobial activity) [Peptide 1T-32]
  Target(s) (microorganism bound by the targeting peptide): S. mutans

## 1T-33 (VRTLTILVIFIFNYLKSISYKLKQPFENNLAQSMISI; Peptide with targeting and/or antimicrobial activity) [Peptide 1T-33]
  Target(s) (microorganism bound by the targeting peptide): S. aureus; also recorded: S. epidermidis; also recorded: C. jeikeium; also recorded: C. xerosis; also recorded: C. striatum; also recorded: P. aeruginosa

## 1T-34 (AFWLNILLTLLGYIPGIVHAVYIIAKR; Peptide with targeting and/or antimicrobial activity) [Peptide 1T-34]
  Target(s) (microorganism bound by the targeting peptide): S. aureus; also recorded: S. epidermidis; also recorded: C. jeikeium; also recorded: C. xerosis; also recorded: C. striatum; also recorded: P. aeruginosa

## 1T-35 (EICLTLVFPIRGSYSEAAKFPVPIHIVEDGTVELPK; Peptide with targeting and/or antimicrobial activity) [Peptide 1T-35]
  Target(s) (microorganism bound by the targeting peptide): P. aeruginosa

## 1T-36 (VYRHLRFIDGKLVEIRLERK; Peptide with targeting and/or antimicrobial activity) [Peptide 1T-36]
  Target(s) (microorganism bound by the targeting peptide): S. aureus; also recorded: S. epidermidis; also recorded: C. jeikeium; also recorded: C. xerosis; also recorded: C. striatum; also recorded: P. aeruginosa

## 1T-37 (YIVGALVILAVAGLIYSMLRKA; Peptide with targeting and/or antimicrobial activity) [Peptide 1T-37]
  Target(s) (microorganism bound by the targeting peptide): S. mutans; also recorded: S. aereus; also recorded: S. epidermidis; also recorded: C. jeikeium; also recorded: C. xerosis; also recorded: C. striatum; also recorded: P. aeruginosa

## 1T-38 (VMFVLTRGRSPRPMIPAY; Peptide with targeting and/or antimicrobial activity) [Peptide 1T-38]
  Target(s) (microorganism bound by the targeting peptide): S. mutans; also recorded: S. aereus; also recorded: S. epidermidis; also recorded: C. jeikeium; also recorded: C. xerosis; also recorded: C. striatum; also recorded: P. aeruginosa

## 1T-39 (FGFCVWMYQLLAGPPGPPA; Peptide with targeting and/or antimicrobial activity) [Peptide 1T-39]
  Target(s) (microorganism bound by the targeting peptide): S. mutans; also recorded: P. aeruginosa

## 1T-40 (QRVSLWSEVEHEFR; Peptide with targeting and/or antimicrobial activity) [Peptide 1T-40]
  Target(s) (microorganism bound by the targeting peptide): S. mutans; also recorded: P. aeruginosa

## 1T-41 (KRGSKIVIAIAVVLIVLAGVWVW; Peptide with targeting and/or antimicrobial activity) [Peptide 1T-41]
  Target(s) (microorganism bound by the targeting peptide): S. mutans; also recorded: S. aureus; also recorded: S. epidermidis; also recorded: C. jeikeium; also recorded: C. striatum; also recorded: P. aeruginosa

## 1T-42 (TVLDWLSLALATGLFVYLLVALLRADRA; Peptide with targeting and/or antimicrobial activity) [Peptide 1T-42]
  Target(s) (microorganism bound by the targeting peptide): S. aureus; also recorded: S. epidermidis; also recorded: C. xerosis; also recorded: C. striatum; also recorded: P. aeruginosa

## 1T-43 (DRCLSVLSWSPPKVSPLI; Peptide with targeting and/or antimicrobial activity) [Peptide 1T-43]
  Target(s) (microorganism bound by the targeting peptide): C. jeikium; also recorded: P. aeruginosa
